Test results taken from patent US6770673B1, “Therapeutic uses of arglabin in combination with other chemotherapy agents” (priority 1997, dated 2004).

Legend:
Worker's carcinosarcoma = assay: Inhibition of tumor growth in implanted tumors; type: in vivo, mice and rats
Geren's carcinosarcoma = assay: Inhibition of tumor growth in implanted tumors; type: in vivo, mice and rats; conditions: dose 50 mg/kg
Leucemia P-388 = assay: Implanted leukemia, inhibition / survival; type: in vivo, mice and rats; conditions: dose 50 mg/kg
Sarcoma-45 = assay: Inhibition of tumor growth in implanted tumors; type: in vivo, rats
[1] = tested on: Sarcoma-45 resistant to 5-fluorouracil; assay: Inhibition of growth of resistant tumour strains; type: in vivo, rats
[2] = tested on: Alveolar Cancer of the liver; assay: Inhibition of tumor growth in implanted tumors; type: in vivo, mice and rats
Pliss lymphosarcoma = assay: Inhibition of tumor growth in implanted tumors; type: in vivo, rats
M-1 Sarcoma = assay: Inhibition of tumor growth in implanted tumors; type: in vivo, mice and rats; conditions: dose 30 mg/kg
[3] = tested on: Pliss Lymphosarcoma resistant to prospidine; assay: Inhibition of growth of resistant tumour strains; duration of life and metastasis; type: in vivo, rats; conditions: dose 30 mg/kg
PC-1 = assay: Inhibition of tumor growth in implanted tumors; type: in vivo, mice and rats; conditions: dose 30 mg/kg
[4] = tested on: Pliss Lymphosarcoma resistant to rubidomycin; assay: Inhibition of growth of resistant tumour strains; type: in vivo, rats; conditions: dose 30 mg/kg
[5] = tested on: Sarcoma-45 resistant to prospidine; assay: Inhibition of growth of resistant tumour strains; type: in vivo, rats; conditions: dose 30 mg/kg
Breast Cancer RMC-1 = assay: Inhibition of tumor growth in implanted tumors; type: in vivo, mice and rats; conditions: dose 30 mg/kg
[6] = tested on: Pliss Lymphosarcoma resistant to leucoeffdine; assay: Inhibition of growth of resistant tumour strains; tumor disappearance; type: in vivo, rats
[7] = tested on: Sarcoma-45 resistant to rubidomycin; assay: Inhibition of growth of resistant tumour strains; type: in vivo, rats; conditions: dose 30 mg/kg

Compound | Inhibition of Tumour Growth, % - Worker's carcinosarcoma (Worker's carcinosarcoma; dose 50 mg/kg) [%] | Inhibition of Tumour Growth, % - Geren's carcinosarcoma (Geren's carcinosarcoma) [%] | Inhibition of Tumour Growth, % - Leucemia P-388 PALT (Leucemia P-388) [%] | Inhibition of Tumour Growth, % - Sarcoma-45 (Sarcoma-45; dose 50 mg/kg) [%] | Inhibition of Tumour Strains Growth, % - Resistant Forms - Sarcoma-45 to 5-fluorouracil ([1]; dose 50 mg/kg) [%] | Inhibition of Tumour Growth, % - Alveolar Cancer of the liver ([2]; dose 50 mg/kg) [%] | Inhibition of Tumour Growth, % - Pliss lymphosarcoma (Pliss lymphosarcoma; dose 50 mg/kg) [%] | Inhibition of Tumour Growth, % - M-1 Sarcoma (M-1 Sarcoma) [%] | Inhibition of Tumour Growth, % - Worker's carcinosarcoma (Worker's carcinosarcoma; dose 30 mg/kg) [%] | Inhibition of Tumour Growth, % - Sarcoma-45 (Sarcoma-45; dose 30 mg/kg) [%] | Inhibition of Tumour Growth, % - Pliss lymphosarcoma (Pliss lymphosarcoma; dose 30 mg/kg) [%] | further results
C=C1C(=O)OC2C1CCC(C)(Cl)C1(O)CC(Cl)C(C)(O)C21 (stereo not shown) [Dichlordihydroxyarglabin (3)] | 63.2 | 71.4 | 92.1 | 70.9 | 70.6 | 51.0 | 29.0 | – | – | – | – | –
CC1=CCC23OC2(C)CCC2C(CN(C)C)C(=O)OC2C13 (stereo not shown) [Dimethylaminoarglabin (14b), dimethylaminoarglabin] | 30.0 | 85.1 | 80.1 | 79.0 | 52.1 | 42.0 | 56.0 | 79.9 | 30.0 | 85.1 | 78.2 | Inhibition of Tumour Strains Growth, % - Resistant Forms - Pliss Lymphosarcoma to prospidine [3]: 52.1%; Inhibition of Tumour Growth, % - PC-1 (PC-1): 62.1%
CN(C)CC1C(=O)OC2C1CCC1(C)OC13CC1OC1(C)C23 (stereo not shown) [Dimethylaminoepoxyarglabin (15b), dimethylaminoepoxyarglabin] | 43.1 | 31.4 | 51.0 | 58.1 | 11.2 | 38.0 | 64.6 | – | – | – | – | –
C=C1C(=O)OC2C1CCC1(C)OC13CC1OC1(C)C23 (stereo not shown) [Epoxyarglabin (2), 1(10), 3(4)-diepoxy-guai-11(13)-en-6,12-olid] | – | – | – | – | – | – | – | 78.4 | 36.4 | 88.8 | 72.1 | Inhibition of Tumour Strains Growth, % - Resistant Forms - Pliss Lymphosarcoma to rubidomycin [4]: 78.0%; Inhibition of Tumour Strains Growth, % - Resistant Forms - Sarcoma-45 to prospidine [5]: 70.4%; Inhibition of Tumour Growth, % - Breast Cancer RMC-1 (Breast Cancer RMC-1): 59.6%; Inhibition of Tumour Strains Growth, % - Resistant Forms - Pliss Lymphosarcoma to leucoeffdine ([6]; dose 30 mg/kg): 79.8%; Inhibition of Tumour Strains Growth, % - Resistant Forms - Sarcoma-45 to 5-fluorouracil ([1]; dose 30 mg/kg): 66.0%; Inhibition of Tumour Strains Growth, % - Resistant Forms - Sarcoma-45 to rubidomycin [7]: 78.6%; Inhibition of Tumour Growth, % - Alveolar Cancer of the liver ([2]; dose 30 mg/kg): 70.4%
CN(C)CC1C(=O)OC2C1CCC1(C)OC13CC1OC1(C)C23.Cl (stereo not shown) [dimethylaminoepoxyarglabin hydrochloride] | 51.4 | 15.6 | 31.2 | 32.4 | 13.2 | 29.1 | 47.0 | – | – | – | – | –
NC(Cc1ccc(N(CCCl)CCCl)cc1)C(=O)O (stereo not shown) [sarcolysin, reference compound] | – | – | – | – | – | – | – | – | – | – | – | rats with complete disappearance of the tumor ([6]; leukofedin resistant Pliss' lymphosarcoma, collateral sensitivity): 60%
